Like-named read-outs stand apart in the source and are kept apart here.
Experiments:
Type in all cases: in vivo
[1] = system: Amaranthus retroflexus (AMARE); assay: Post-emergence herbicidal action against AMARE
In short: (§1)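 Rates were 320 g/ha or below, applied as aqueous WP/EC spray with 0.5% additive (600 l/ha) onto one-leaf-stage plants. About 3 weeks later in the greenhouse, damage was scored visually against untreated plants on a 0–100% scale, where 100% means plants died.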

[2] = system: Zea mays (ZEAMX); conditions: crop plant compatibility, effect vs untreated controls
In short: (§2)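 Test crops were treated 2 to 3 weeks after sowing, once they reached one leaf, by spraying compound in water with 0.5% additive at 600 l/ha. Visual scoring compared them with untreated controls roughly 3 weeks on, and appendices a, b and c denote different doses.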

[3] = system: Oryza sativa (ORYSA); conditions: crop plant compatibility, effect in comparison to untreated controls
In short: as §2

[4] = system: Polygonum convolvulus (POLCO); assay: Pre-emergence herbicidal action against POLCO; conditions: dosage 320 g/ha
In short: (§3)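 Pre-emergence soil-surface spray, WP/EC formulation, 0.5% additive, 600 l/ha water, rates of 320 g/ha or lower. Greenhouse, ~3 wk. Visual score, % of untreated control (100% = plants dead, 0% = like control).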

[5] = system: Viola tricolor (VIOTR); assay: Pre-emergence herbicidal action against VIOTR
In short: as §3

[6] = system: Pharbitis purpurea (PHBPU); assay: Pre-emergence herbicidal action against PHBPU; conditions: dosage 320 g/ha
In short: as §3

[7] = system: Avena fatua (AVEFA); assay: Pre-emergence herbicidal action against AVEFA; conditions: 320 g/ha, visual scoring after about 3 weeks vs untreated controls
In short: as §3

[8] = system: Lolium rigidum (LOLRI); assay: Post-emergence herbicidal action against LOLRI
In short: as §1

[9] = system: Avena fatua (AVEFA); assay: Post-emergence herbicidal action against AVEFA; conditions: visual rating about 3 weeks after treatment
In short: as §1

[10] = system: Viola tricolor (VIOTR); assay: Post-emergence herbicidal action against VIOTR
In short: as §1

[11] = system: Zea mays (ZEAMX); conditions: pre-emergence, crop plant compatibility, in comparison to untreated controls
In short: (§4)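 Crop injury rated visually in percent against untreated plants roughly 3 weeks after treatment (0% no effect, 100% plants dead). Compounds, as WP or EC with 0.5% additive in 600 l/ha water, were applied to the covering soil right after sowing; greenhouse growth. Suffixes a, b, c denote different dosages.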

[12] = system: Brassica napus (BRSNW); conditions: crop plant compatibility, in comparison to untreated controls
In short: as §4

[13] = system: Oryza sativa (ORYSA); conditions: pre-emergence, crop plant compatibility, in comparison to untreated controls
In short: as §4

[14] = system: Echinochloa crus-galli (ECHCG); assay: Post-emergence herbicidal action against ECHCG
In short: as §1

[15] = system: Alopecurus myosuroides (ALOMY); assay: Pre-emergence herbicidal action against ALOMY; conditions: 320 g/ha; scored visually after about 3 weeks; 100% = plants have died
In short: as §3

[16] = system: Verconica persica (VERPE); assay: Pre-emergence herbicidal action against VERPE
In short: as §3

[17] = system: Verconica persica (VERPE); assay: Post-emergence herbicidal action against VERPE
In short: as §1

[18] = system: Polygonum convolvulus (POLCO); assay: Post-emergence herbicidal action against POLCO
In short: as §1

[19] = system: Setaria viridis (SETVI); assay: Post-emergence herbicidal action against SETVI; conditions: dosage 320 g/ha
In short: as §1

[20] = system: Amaranthus retroflexus (AMARE); assay: Pre-emergence herbicidal action against AMARE; conditions: 320 g/ha, visual scoring after about 3 weeks vs untreated controls
In short: as §3

[21] = system: Lolium rigidum (LOLRI); assay: Pre-emergence herbicidal action against LOLRI
In short: as §3

[22] = system: Alopecurus myosuroides (ALOMY); assay: Post-emergence herbicidal action against ALOMY; conditions: visual rating about 3 weeks after treatment vs untreated controls (100% = plants have died, 0% = like control plants)
In short: as §1

[23] = system: Matricaria inodora (MATIN); assay: Pre-emergence herbicidal action against MATIN; conditions: dosage 320 g/ha
In short: as §3

[24] = system: Pharbitis purpurea (PHBPU); assay: Post-emergence herbicidal action against PHBPU
In short: as §1

[25] = system: Setaria viridis (SETVI); assay: Pre-emergence herbicidal action against SETVI; conditions: dosage 320 g/ha
In short: as §3

[26] = system: Abutilon theophrasti (ABUTH); assay: Pre-emergence herbicidal action against ABUTH; conditions: Dosage column 320 g/ha (title prints 3200 g/ha); scored visually after about 3 weeks; 100% = plants have died
In short: as §3

[27] = system: Abutilon theophrasti (ABUTH); assay: Post-emergence herbicidal action against ABUTH; conditions: 320 g/ha, visual rating about 3 weeks after treatment vs untreated controls (100% = plants have died, 0% = like control plants)
In short: as §1

[28] = system: Echinochloa crus-galli (ECHCG); assay: Pre-emergence herbicidal action against ECHCG; conditions: dosage 320 g/ha
In short: as §3

[29] = system: Triticum aestivum (TRZAS); conditions: crop plant compatibility, 80 g/ha, effect vs untreated controls
In short: as §2

[30] = system: Triticum aestivum (TRZAS); conditions: pre-emergence, 80 g/ha, crop plant compatibility, in comparison to untreated controls
In short: as §4

[31] = 320 g/ha, visual rating about 3 weeks after treatment

SMILES | Post-emergence action against AMARE in % [1, 31] | Post-emergence action against ZEAMX in % ([2]; 80 g/ha) | Post-emergence action against ZEAMX in % ([2]; 320 g/ha) | Post-emergence action against ORYSA in % ([3]; 80 g/ha) | Pre-emergence action against POLCO in % [4] | Pre-emergence action against VIOTR in % ([5]; 320 g/ha, Viola tricolor) | Pre-emergence action against PHBPU in % [6] | Pre-emergence action against AVEFA in % [7] | Post-emergence action against LOLRI in % ([8]; dosage 320 g/ha) | Post-emergence action against AVEFA in % ([9]; 320 g/ha) | Post-emergence action against VIOTR in % ([10]; 80 g/ha) | Post-emergence action against VIOTR in % ([10]; 320 g/ha) | Pre-emergence action against ZEAMX in % ([11]; 80 g/ha) | Pre-emergence action against BRSNW in % ([12]; 80 g/ha) | Pre-emergence action against ORYSA in % ([13]; 80 g/ha) | Post-emergence action against ECHCG in % ([14]; dosage 80 g/ha) | Post-emergence action against ECHCG in % ([14]; dosage 320 g/ha) | Pre-emergence action against ALOMY [15] | Pre-emergence action against VERPE in % ([16]; dosage 320 g/ha) | Post-emergence action against VERPE in % ([17]; 320 g/ha, VERPE) | other results
CCOC(=O)COc1nn(-c2ncccc2C(F)(F)F)c(-c2ccc(F)nc2)c1Br [Example I-335] | 80% | 0% | 20% | 0% | 90% | 100% | 80% | 80% | 90% | 90% | 80% | 90% | 20% | 0% | 0% | 80% | 90% | 80% | 80% | 90% | Post-emergence action against AMARE in % ([1]; 80 g/ha, visual rating about 3 weeks after treatment vs untreated controls (100% = plants have died, 0% = like control plants)): 80%; Pre-emergence action against BRSNW in % ([12]; 320 g/ha): 0%; Post-emergence action against VERPE in % ([17]; dosage 80 g/ha): 90%; Post-emergence action against POLCO in % ([18]; dosage 80 g/ha): 80%; Post-emergence action against POLCO in % ([18]; dosage 320 g/ha): 80%; Post-emergence action against SETVI in % [19]: 90%; Pre-emergence action against AMARE in % [20]: 90%; Pre-emergence action against LOLRI in % ([21]; dosage 320 g/ha): 90%; Post-emergence action against ALOMY in % ([22]; 320 g/ha): 100%
COC(=O)[C@@H](C)Oc1nn(-c2nc(F)ccc2F)c(-c2ccc(F)nc2)c1Br [Example I-319] | 80% | 10% |  | 0% | 90% | 100% | 90% | 100% | 80% | 80% | 80% | 90% |  | 20% |  | 80% | 90% | 100% | 90% | 80% | Pre-emergence action against MATIN in % [23]: 90%; Pre-emergence action against VIOTR in % ([5]; dosage 80 g/ha): 100%; Post-emergence action against PHBPU in % ([24]; dosage 80 g/ha): 80%; Post-emergence action against PHBPU in % ([24]; dosage 320 g/ha): 90%; Post-emergence action against LOLRI in % ([8]; dosage 80 g/ha): 80%; Pre-emergence action against SETVI in % [25]: 100%; Post-emergence action against AVEFA in % ([9]; 80 g/ha): 80%; Pre-emergence action against ABUTH [26]: 80%; Pre-emergence action against VERPE in % ([16]; dosage 80 g/ha): 80%; Post-emergence action against POLCO in % ([18]; dosage 320 g/ha): 80%; Post-emergence action against SETVI in % [19]: 80%; Pre-emergence action against AMARE in % [20]: 100%; Post-emergence action against ABUTH in % [27]: 80%; Pre-emergence action against ECHCG in % [28]: 100%; Pre-emergence action against LOLRI in % ([21]; dosage 80 g/ha): 90%; Pre-emergence action against LOLRI in % ([21]; dosage 320 g/ha): 100%; Post-emergence action against ALOMY in % ([22]; 80 g/ha): 90%; Post-emergence action against ALOMY in % ([22]; 320 g/ha): 90%
CCOC(=O)COc1nn(-c2ccnc(F)c2)c(-c2ccc(F)nc2)c1Br [III-01] | 80% | 0% | 0% | 0% |  |  |  |  |  | 80% |  | 80% | 10% | 0% | 0% |  | 80% |  |  | 80% | Post-emergence action against TRZAS in % [29]: 0%; Post-emergence action against ORYSA in % ([3]; 320 g/ha): 0%; Pre-emergence action against ZEAMX in % ([11]; 320 g/ha): 20%; Pre-emergence action against TRZAS in % [30]: 0%; Pre-emergence action against ORYSA in % ([13]; 320 g/ha): 0%

From patent publication US20240041042A1, “1-(PYRIDYL)-5-AZINYLPYRAZOLE DERIVATIVES, AND THEIR USE FOR CONTROL OF UNDESIRED PLANT GROWTH” (Bayer Aktiengesellschaft, priority 2020, published 2024)
